These molecules were tested against T1, rat follicle stimulating hormone receptor (rFSHR) (Rattus norvegicus, UniProt P20395) (assay: Intracellular cAMP measurement (HTRF) assay, antagonism of EC70 of hFSH). Details: HEK293 cells expressing rFSHR, 1 ng/ml hFSH (EC70), read-out: Class (IC50 to antagonise an EC70 of FSH receptors agonist such as hFSH).
T1 construct: expressed in transfected cells
T1 sequence (P20395 18-692): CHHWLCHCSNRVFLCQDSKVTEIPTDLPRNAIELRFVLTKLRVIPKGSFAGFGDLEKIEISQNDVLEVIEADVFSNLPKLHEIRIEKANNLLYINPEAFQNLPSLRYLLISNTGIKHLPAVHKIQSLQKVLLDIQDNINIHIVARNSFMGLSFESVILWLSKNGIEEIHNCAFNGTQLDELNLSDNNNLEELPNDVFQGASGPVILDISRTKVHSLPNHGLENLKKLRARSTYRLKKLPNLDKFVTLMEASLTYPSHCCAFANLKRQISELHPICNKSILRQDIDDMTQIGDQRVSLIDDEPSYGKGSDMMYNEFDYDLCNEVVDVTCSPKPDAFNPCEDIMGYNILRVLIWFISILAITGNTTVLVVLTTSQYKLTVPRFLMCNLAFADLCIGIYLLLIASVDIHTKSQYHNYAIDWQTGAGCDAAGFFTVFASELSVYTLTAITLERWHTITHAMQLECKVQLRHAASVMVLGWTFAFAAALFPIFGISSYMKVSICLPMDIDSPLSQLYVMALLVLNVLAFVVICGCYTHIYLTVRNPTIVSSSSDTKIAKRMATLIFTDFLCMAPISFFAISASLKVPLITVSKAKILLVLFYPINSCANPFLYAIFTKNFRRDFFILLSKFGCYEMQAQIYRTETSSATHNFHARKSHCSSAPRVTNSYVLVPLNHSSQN
Format: cell-based
Excerpt: Intracellular cAMP Measurement Assay
The Intracellular cAMP measurement assay is a functional cell-based assay used to study GPCR function. This method relies on a Time-Resolved Fluorescence (HTRF) assay to measure the cAMP accumulation upon receptor-mediated Gs protein activation in cells expressing recombinant GPCR or in cells from native tissues. In brief, this method is a competitive immunoassay between native cAMP produced by cells and the cAMP labeled with a fluorescent tag. The endogenously produced cAMP competes with exogenous added d2-labelled cAMP for the cAMP binding site on a Eu3+ cryptate labelled anti-cAMP antibody. The d2-labelled cAMP and the Eu^3+ labelled antibody produces a basal fluroresence via HTRF and therefore an intracellular increase in unlabelled cAMP is detected as decrease in this signal. cAMP is one of the most important intracellular mediators. Its concentration in cells can be increased upon binding of many hormones to their receptors. The most studied pathway consists in the release of α-subunit GTP-binding proteins following ligand-receptor interaction, which in turn activates or inhibits the ATP/cAMP conversion function of adenylate cyclase enzyme. cAMP is then involved in many complex regulatory processes such as protein kinase activation or ion channel gating. This method is widely used to study receptor activation of G protein in cells over-expressing GPCRs or in native cells, including FSH receptors expressing cells (Gabriel et al., Assay Drug Dev. Technol., 1, 291-303, 2003).
Transfection and cell culture: The cDNA encoding the rat follicle stimulating hormone receptor (rFSHR), (accession number NM_199237, NCBI Nucleotide database browser) was subcloned into an expression vector containing also the hygromycin resistance gene. Transfection of this vector into HEK293 cells with PolyFect reagent (Qiagen) according to supplier's protocol, and hygromycin treatment allowed selection of antibiotic resistant cells which had integrated stably one or more copies of the plasmid. Positive cellular clones expressing rFSHR were identified in a functional assay measuring cAMP production in cells following stimulation by addition of purified human follicle stimulating hormone (hFSH).
HTRF cAMP assay: On the day of the experiment, cells were detached from the Petri dish and distributed in a low volume, black-walled 384-well plate at a density of 5,000 cells/well in an assay buffer containing 1 mM IBMX to prevent cAMP degradation by cytoplasmic phosphodiesterases. The determination of the cAMP accumulation was performed using an HTRF assay (Trinquet et al., Anal. Biochem., 358, 126-135, 2006). Briefly, cells were incubated for 3 min in the presence of increasing concentrations of negative allosteric modulators (from 1 nM to 60 μM) and then 30 min in the presence of 1 ng/ml of hFSH, an agonist of rat FSH receptor, that has been determined in previous experiments to correspond to the EC70, a concentration that gives 70% of the maximal response of the agonist, and is in accordance with published data (Fox et al., Mol. Endocrin., 15, 378-389, 2001). […] Cells were then lysed by adding the HTRF assay components, the europium cryptate-labeled anti-cAMP antibody, and the XL665-labeled cAMP analog, previously diluted in a HEPES buffer (50 mM, pH 7.0) containing 0.8 M potassium fluoride, 0.2% (w/v) BSA, and 1% (v/v) Triton X-100, a percentage of detergent that ensure complete cell lysis. Assay was then incubated for 1 hr at room temperature, and HTRF signal was measured after excitation at 337 nm, and dual emission at 620 and 665 nm, using a RubyStar fluorimeter (BMG Labtechnologies). Moreover, the fluorescence ratio of an appropriate range of known concentrations of cAMP standards was also included on each assay plate to produce a standard cAMP curve. […]
With `COc1ccc(C(=O)Nc2ccc(C(C)(C)CNC(=O)c3ccc4[nH]ccc4c3)cc2)cc1OC` [Example 142] the IC50 was 150 to 400 nM.
Work on `COc1ccc(C(=O)Nc2ccc(C(C)(C)CNC(=O)c3ccc4[nH]cnc4c3)cc2)cc1OC` [Example 207] yielded an IC50 of 150 to 400 nM.
`COc1ccc(C(=O)Nc2cccc(C(C)(C)CNC(=O)c3cnc4ccccn34)c2)cc1OC` [Example 203, Imidazo[1,2-a]pyridine-3-carboxylic acid {2-[3-(3,4-dimethoxy-benzoylamino)-phenyl]-2-methyl-propyl}-amide] gave an IC50 of 150 to 400 nM.
For `COc1ccc(C(=O)Nc2ccc(Cl)c(C(C)(C)C#N)c2)cc1OC` [Example 125, N-[4-Chloro-3-(cyano-dimethyl-methyl)-phenyl]-3,4-dimethoxy-benzamide], the IC50 was ≥ 1000 nM.
With `COc1ccc(C(=O)Nc2ccc(C(C)(C)CNC(=O)c3ccc4c(c3)n(C)c(=O)n4C)cc2)cc1OC` [Example 210] the IC50 was 400 to 1000 nM.
`COc1ccc(C(=O)Nc2cc(Cl)c(C(C)(C)C#N)c(Cl)c2)cc1OC` [Example 120, N-[3,5-Dichloro-4-(cyano-dimethyl-methyl)-phenyl]-3,4-dimethoxy-benzamide] showed an IC50 of 150 to 400 nM.
In the case of `COc1ccc(C(=O)Nc2ccc(C(C)(C)CNC(=O)c3cnc4[nH]ccc4c3)cc2)cc1OC` [Example 202], the IC50 is reported as < 150 nM.
`COc1ccc(C(=O)Nc2ccc(C(C)(C)C#N)c(C(F)(F)F)c2)cc1OC` [Example 99, N-[4-(Cyano-dimethyl-methyl)-3-trifluoromethyl-phenyl]-3,4-dimethoxy-benzamide] showed an IC50 of 150 to 400 nM.
`COc1ccc(C(=O)Nc2ccc(C(C)(C)CNC(=O)c3ccc4c(c3)nc(C)n4C)cc2)cc1OC` [Example 209] was tested, and the IC50 was ≥ 1000 nM.
For `COc1ccc(C(=O)Nc2ccc(C(C)(C)CNC(=O)c3cc(C)[nH]n3)cc2)cc1OC` [Example 127], the IC50 was 400 to 1000 nM.
`COc1ccc(C(=O)Nc2ccc(C(C)(C)CNC(=O)c3ccc4[nH]c(C)nc4c3)cc2)cc1OC` [Example 208] was tested, and the IC50 was 400 to 1000 nM.
`COc1ccc(C(=O)Nc2ccc(C(C)(C)C#N)c(-c3cccnc3)c2)cc1OC` [Example 132, N-[4-(Cyano-dimethyl-methyl)-3-pyridin-3-yl-phenyl]-3,4-dimethoxy-benzamide] gave an IC50 of 150 to 400 nM.
`COc1ccc(C(=O)Nc2ccc(C(C)(C)C#N)c(-c3cccs3)c2)cc1OC` [Example 206, N-[4-(Cyano-dimethyl-methyl)-3-thiophen-2-yl-phenyl]-3,4-dimethoxy-benzamide] was tested, and the IC50 was < 150 nM.
With `COc1ccc(C(=O)Nc2ccc(C(C)(C)CNC(=O)c3nc4ccncc4[nH]3)cc2)cc1OC` [Example 214] the IC50 was 150 to 400 nM.
`COc1ccc(C(=O)Nc2ccc(C(C)(C)CNC(=O)c3cnn4ccccc34)cc2)cc1OC` [Example 41] was tested, and the IC50 was < 150 nM.
`COc1ccc(C(=O)Nc2ccc(C(C)(C)CCNC(=O)c3cnc4[nH]cnc4c3)cc2)cc1OC` [Example 199, 3H-Imidazo[4,5-b]pyridine-6-carboxylic acid {3-[4-(3,4-dimethoxy-benzoylamino)-phenyl]-3-methyl-butyl}-amide] gave an IC50 of 150 to 400 nM.
For `COc1ccc(C(=O)Nc2ccc(C(C)(C)C#N)c(-c3ccccn3)c2)cc1OC` [Example 183, N-[4-(Cyano-dimethyl-methyl)-3-pyridin-2-yl-phenyl]-3,4-dimethoxy-benzamide], the IC50 was ≥ 1000 nM.
`COc1ccc(C(=O)Nc2ccc(C(C)(C)CNC(=O)c3n[nH]c4ccccc34)c(C)c2)cc1OC` [Example 109, 1H-Indazole-3-carboxylic acid{2-[4-(3,4-dimethoxy-benzoylamino)-2-methyl-phenyl]-2-methyl-propyl}-amide] was tested, and the IC50 was 150 to 400 nM.
For `CCc1cc(NC(=O)c2ccc(OC)c(OC)c2)ccc1C(C)(C)CNC(=O)c1cnc2[nH]cnc2c1` [Example 198, 3H-Imidazo[4,5-b]pyridine-6-carboxylic acid {2-[4-(3,4-dimethoxy-benzoylamino)-2-ethyl-phenyl]-2-methyl-propyl}-amide], the IC50 was < 150 nM.
With `COc1ccc(C(=O)Nc2ccc(C(C)(C)CCNC(=O)c3cnc4ccccn34)cc2)cc1OC` [Example 194, Imidazo[1,2-a]pyridine-3-carboxylic acid {3-[4-(3,4-dimethoxy-benzoylamino)-phenyl]-3-methyl-butyl}-amide] the IC50 was 150 to 400 nM.
Work on `COc1ccc(C(=O)Nc2ccc(C(C)(C)CNC(=O)c3cn(C(C)=O)c4ccccc34)cc2)cc1OC` [Example 104, 1-Acetyl-1H-indole-3-carboxylic acid{2-[4-(3,4-dimethoxy-benzoylamino)-phenyl]-2-methyl-propyl}-amide] yielded an IC50 of 400 to 1000 nM.
For `COc1ccc(C(=O)Nc2ccc(C(C)(C)CNC(=O)c3cnc4ccc(F)cn34)cc2)cc1OC` [Example 211], the IC50 was < 150 nM.
In the case of `COc1ccc(C(=O)Nc2ccc(C(C)(C)C#N)c(C)c2)cc1OC` [Example 95, N-[4-(Cyano-dimethyl-methyl)-3-methyl-phenyl]-3,4-dimethoxy-benzamide], the IC50 is reported as 150 to 400 nM.
Work on `COc1ccc(C(=O)Nc2ccc(C(C)(C)CNC(=O)c3cnc4ncccn34)cc2)cc1OC` [Example 185] yielded an IC50 of 400 to 1000 nM.
With `COc1ccc(C(=O)Nc2ccc(C(C)(C)CNC(=O)c3cn(CCCN(C)C)c4ccc(F)cc34)cc2)cc1OC` [Example 192, 1-(3-Dimethylamino-propyl)-5-fluoro-1H-indole-3-carboxylic acid {2-[4-(3,4-dimethoxy-benzoylamino)-phenyl]-2-methyl-propyl}-amide] the IC50 was ≥ 1000 nM.
`COc1ccc(C(=O)Nc2ccc(C(C)(C)CNC(=O)c3nn(C)c4ccccc34)c(Cl)c2)cc1OC` [Example 121, 1-Methyl-1H-indazole-3-carboxylic acid{2-[2-chloro-4-(3,4-dimethoxy-benzoylamino)-phenyl]-2-methyl-propyl}-amide] was tested, and the IC50 was 150 to 400 nM.
In the case of `COc1ccc(C(=O)Nc2cccc(C3(CNC(=O)c4nn(C)c5ccccc45)CCCC3)c2)cc1OC` [Example 102, 1-Methyl-1H-indazole-3-carboxylic acid{1-[3-(3,4-dimethoxy-benzoylamino)-phenyl]-cyclopentylmethyl}-amide], the IC50 is reported as ≥ 1000 nM.
Molecule “1H-Pyrrolo[2,3-b]pyridine-5-carboxylic acid {2-[4-(3,4-dimethoxy-benzoylamino)-phenyl]-2-methyl-propyl}-amide [Example 201]” has an IC50 of 150 to 400 nM.
Molecule `COc1ccc(C(=O)Nc2ccc(C(C)(C)CNC(=O)c3n[nH]c4ccccc34)c(Cl)c2)cc1OC` [Example 113, 1H-Indazole-3-carboxylic acid{2-[2-chloro-4-(3,4-dimethoxy-benzoylamino)-phenyl]-2-methyl-propyl}-amide] has an IC50 of 150 to 400 nM.

Source: patent US20100249123A1, “NOVEL BENZAMIDE DERIVATIVES AS MODULATORS OF THE FOLLICLE STIMULATING HORMONE” (ADDEX PHARMA SA, priority 2007, published 2010)
